# Experiments:
# HLE cells [1] = assay: Wound healing assay; type: cell-based; settings: Homo sapiens, serum-free, read-out: inhibition of cell migration
# Procedure: (§1) Cells were seeded in a 12-well plate in 10% FBS medium and grown to reach a 80-90% confluence. Then, a scratch was made on the cell monolayer by using a p200 pipette tip. The plate was washed with sterile PBS to remove the debris and on the outer bottom of the plate were created markings with a tip marker, used as reference points. Each cell line was incubated with medium without FBS and containing increasing concentrations of Compound 1 (1-3-9-12 μM). Images were acquired at 0, 24 and 48 h by using a confocal microscope Nikon Eclipse Ti2 in bright field microscope and analysed with image-J. Image-J software was used to measure the scratched area. Cell migratory ability of wound-healing was assessed using the following formula: [(wound area at 0 h)−(wound area at indicated time)]/(wound area at 0 h).
# (§2) Images were taken at time 0, 24 h and 48 h and cell migration into the cell-free region (outlined) was quantified.
# (§3) Tumor progression is characterized by an enhanced cell motility and invasiveness. To expand upon the knowledge of the effects of Compound 1 on HLE, KKU-m213 and HT-29 cells, their migratory activity was assessed when treated with Compound 1 by using both, a wound healing and a transwell migration assay. Cells were seeded in a 12-well plate and, when a confluent monolayer was reached, an artificial gap was generated between the cells using a pipette tip. […]
# KKU-M213 cells [2] = assay: Wound healing assay; type: cell-based; settings: Homo sapiens, serum-free, respect to control, after 24 h and 48 h, p<0.05, read-out: reduction in wound closure
# Procedure: as §1, §2, §3
# HT-29 cells [3] = assay: Wound healing assay; type: cell-based, human; settings: 9 and 12 μM, serum-free
# Procedure: as §1, §2, §3
# HLE cells [4] = assay: Transwell migration assay; type: cell-based, human; settings: 12 μM, 24 h, serum-free medium in upper chamber
# Procedure: (§4) Cell culture inserts with […] pores (Corning, inc.) were coated with 50 μl of a 10 mg/ml Collagen type 1 solution (Gibco). 1.5×10^4 cells were plated in the upper chamber in serum-free medium, in absence or presence of 12 μM Compound 1, while the bottom wells were filled with complete medium. The cells were allowed to migrate across the membrane for at least 16 h. After incubation, the cells were fixed with PFA 4% for 10′ and stained with 0.02% crystal violet for 10′. The excess dye was washed off with tap water and the non-migrated cells were scraped off from the upper surface of the membrane with a cotton swab. Cell migratory ability was assessed by counting the average number of cells at least 5 field at 10× magnification.
# as §2
# (§5) Tumor progression is characterized by an enhanced cell motility and invasiveness. To expand upon the knowledge of the effects of Compound 1 on HLE, KKU-m213 and HT-29 cells, their migratory activity was assessed when treated with Compound 1 by using both, a wound healing and a transwell migration assay. Cells were seeded in a 12-well plate and, when a confluent monolayer was reached, an artificial gap was generated between the cells using a pipette tip. The scratch closure of migrating cells was observed after […]. […] In HLE cells a 3 μM concentration of Compound 1 is already sufficient to cause a 40% inhibition of cell migration. […] (FIG. 3B).
# HT-29 cells [5] = assay: Transwell migration assay; type: cell-based, human; settings: 12 μM, 24 h, serum-free medium in upper chamber
# Procedure: as §4, §2, §5
# KKU-M213 cells [6] = assay: Transwell migration assay; type: cell-based, human; settings: 12 μM, 24 h, serum-free medium in upper chamber
# Procedure: as §4, §2, §5
# [7] = test system: apoptosis-related proteins; assay: Human apoptosis antibody array; type: cell-based; settings: 12 μM, 24 h, vs untreated cells
# Procedure: The Human Apoptosis Antibody Array Kit (ab134001, Abcam) was used to detect the apoptosis pathway. Briefly, cells were lysed and each membrane was incubated at 4 °C overnight with 500 μg of total extracted protein. Membranes were then washed and incubated overnight at 4 °C with Biotin-conjugated Anti-Cytokines. After an incubation of the membranes with HRP-streptavidin for 2 h at room temperature, chemiluminescence was detected using ChemiDoc XRS+ (Bio-Rad, Hercules, CA, USA). The images were analysed with Image Lab 5.2.1.
# The representative images were randomly selected from at least 3 independent experiments.
# To further explore the activity of Compound 1 on gastrointestinal cancer cells, the effectiveness on cell apoptosis was investigated. Following incubation with Compound 1, cells underwent morphological changes of cell shrinkage and cytoplasmic vacuolization (FIG. 1C). An early event in apoptosis is represented by the loss of plasma membrane asymmetry, resulting in the translocation of phosphatidylserine (PS) from the inner to the outer plasma membrane leaflet. Exposed PS on the cell surface can be used to measure apoptosis by the binding with Annexin V. KKU-M213, HLE and HT-29 cells were incubated with increasing concentrations of Compound 1 (3, 9 and 12 μM). After 4 hours, cells were stained with a FITC-Annexin V antibody and fixed. […]
# KKU-M213 cells [8] = assay: Crystal violet staining and morphology under inverted light microscope; type: cell-based, human; settings: 3, 9 and 12 μM, 72 h
# lung fibrosis = settings: compared with GLPG1690; cited from earlier work
# pancreatic cancer = settings: compared with gemcitabine; cited from earlier work
# ATX = settings: cited from earlier work
compound,measurement,setting,value
"C[C@H](NC(=O)CCc1nc2cccnc2n1Cc1ccc(OC(F)(F)F)cc1)c1ccc(Cl)cc1 [Compound 1, N-[(S)-1-(4-chloro-phenyl)-ethyl]-3-[3-(4-trifluoromethoxy-benzyl)-3H-imidazo[4,5-b]pyridin-2-yl]-propionamide]",inhibition at 3 µM,HLE cells [1],40%
same,inhibition at 9 µM,KKU-M213 cells [2],~50%
same,inhibition of wound closure,HT-29 cells [3],significantly (p<0.05) inhibited wound closure
same,migratory capacity (migrated cells through the membrane),HLE cells [4],significantly inhibited migratory capacity
same,migratory capacity (migrated cells through the membrane),HT-29 cells [5],significantly inhibited migratory capacity
same,migratory capacity (migrated cells through the membrane),KKU-M213 cells [6],significantly inhibited migratory capacity
same,differential expression of apoptosis-related proteins,[7],"upregulating pro-apoptosic proteins including Bim, Caspase-3 and -8, HTRA, DR6, Fas, p53 and SMAC"
same,morphological changes,KKU-M213 cells [8],cells exhibit morphological changes and characteristics of apoptosis such as cell shrinkage and cytoplasmic vacuolization
same,reduction in fibrosis score,lung fibrosis,greater reduction in fibrosis score compared with GLPG1690
same,activity in pancreatic cancer model,pancreatic cancer,comparable activity with gemcitabine
same,binding site on ATX,ATX,does not bind to the catalytic zinc region of ATX but binds to both the substrate pocket and the LPA carrier channel
